Experimental data published in US20260166128A1, “HUMAN AMYLIN ANALOG, AND DERIVATIVE THEREOF AND USE THEREOF” (priority 2022, published 2026).
Numbered stars: 1 amine (or outer) side, 2 acyl side, 3 side chain; on linkers, the order of the positions; unused ones are H or OH. Bridge positions count the residues as written; N and C are the ends. Square brackets hold non-standard residues; d marks the D form. Peptide text beside a SMILES is read from it. * marks the point of attachment. C20 diacid = O=C(O)CCCCCCCCCCCCCCCCCCC(=O)*; γGlu = O=C(O)[C@H](CCC(=O)[*:2])N[*:1]; βAsp = O=C(O)[C@H](CC(=O)[*:2])N[*:1]; Hyp = O=C(O)[C@@H]1C[C@@H](O)CN1; AEEA = NCCOCCOCC(=O)O; Inp = O=C(O)C1CCNCC1

Biological target: T1, human amylin receptor (Homo sapiens, UniProt O60896+P30988)
T1 construct: host or cells: CHO-K1/Ga15/AMY3 cells, further stably transfected with a CRE-luciferase plasmid
T1 sequence (P30988 25-474): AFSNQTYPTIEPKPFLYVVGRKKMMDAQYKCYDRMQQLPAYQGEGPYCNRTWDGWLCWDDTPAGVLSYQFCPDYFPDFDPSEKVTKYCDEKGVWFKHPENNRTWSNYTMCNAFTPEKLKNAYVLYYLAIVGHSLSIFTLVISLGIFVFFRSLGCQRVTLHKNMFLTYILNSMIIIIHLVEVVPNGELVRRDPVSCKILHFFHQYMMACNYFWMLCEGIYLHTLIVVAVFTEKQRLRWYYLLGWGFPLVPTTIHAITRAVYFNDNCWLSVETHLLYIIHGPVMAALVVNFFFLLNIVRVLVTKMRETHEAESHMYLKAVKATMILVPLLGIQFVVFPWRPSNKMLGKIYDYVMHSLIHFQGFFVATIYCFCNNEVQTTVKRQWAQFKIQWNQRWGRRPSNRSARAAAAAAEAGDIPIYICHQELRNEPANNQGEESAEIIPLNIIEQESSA
T1 sequence (O60896 24-148 partner): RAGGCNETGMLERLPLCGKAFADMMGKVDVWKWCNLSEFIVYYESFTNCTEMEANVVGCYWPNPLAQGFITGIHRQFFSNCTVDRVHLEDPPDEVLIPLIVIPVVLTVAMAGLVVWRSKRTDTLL
Assay: Luciferase assay of amylin derivatives in amylin receptor/CRE-luc CHO cell line
Assay type: cell-based
Conditions: CHO-K1/Ga15/AMY3 CRE-luc cells, 24 hours incubation, F12 medium containing 10% FBS; read-out: EC50
Experimental: The experiment was intended to detect the activity or efficacy of the amylin derivatives on a human amylin receptor in vitro by luciferase assay.
50 μL of growth medium (F12 medium containing 10% FBS) was added into each well of a white 96-well plate, and the stably transfected amylin/CRE-lue CHO cells were inoculated into the white 96-well plate at a density of about 20,000 cells/well for activity determination.

SMILES: CC[C@H](C)[C@H](NC(=O)[C@@H]1CCCN1C(=O)[C@H](CCCCN)NC(=O)[C@H](CC(C)C)NC(=O)[C@H](CC(N)=O)NC(=O)[C@H](CC(N)=O)NC(=O)[C@H](CO)NC(=O)[C@H](CO)NC(=O)[C@H](Cc1c[nH]cn1)NC(=O)[C@H](CCCNC(=N)N)NC(=O)[C@H](CC(C)C)NC(=O)[C@H](Cc1ccccc1)NC(=O)[C@H](CC(=O)O)NC(=O)[C@H](C)NC(=O)[C@H](CC(C)C)NC(=O)[C@H](CCCNC(=N)N)NC(=O)[C@H](CCC(N)=O)NC(=O)[C@@H](NC(=O)[C@H](C)NC(=O)[C@@H]1CSSC[C@H](NC(=O)[C@H](CCCCN)NC(=O)C[C@H](NC(=O)COCCOCCNC(=O)COCCOCCNC(=O)CCCCCCCCCCCCCCCCCCC(=O)O)C(=O)O)C(=O)N[C@@H](CC(N)=O)C(=O)N[C@@H]([C@@H](C)O)C(=O)N[C@@H](C)C(=O)N[C@@H]([C@@H](C)O)C(=O)N1)[C@@H](C)O)C(=O)N[C@@H](CC(C)C)C(=O)N1CCC[C@H]1C(=O)N1CCC[C@H]1C(=O)N[C@H](C(=O)N[C@@H](CC(N)=O)C(=O)N[C@H](C(=O)NCC(=O)N[C@@H](CO)C(=O)N[C@@H](CC(N)=O)C(=O)N[C@H](C(=O)N1C[C@H](O)C[C@H]1C(N)=O)[C@@H](C)O)C(C)C)[C@@H](C)O [PD184] ({C20 diacid-AEEA-AEEA-βAsp}-KCNTATCATQRLADFLRHSSNNLKPILPPTNVGSNT[Hyp]-NH2; disulfide 2-7 (inferred))
- EC50: 0.037 nM

SMILES: CC[C@H](C)[C@H](NC(=O)[C@@H]1CCCN1C(=O)[C@H](CCCCN)NC(=O)[C@H](CC(C)C)NC(=O)[C@H](CC(N)=O)NC(=O)[C@H](CC(N)=O)NC(=O)[C@H](CO)NC(=O)[C@H](CO)NC(=O)[C@H](Cc1c[nH]cn1)NC(=O)[C@H](CCCNC(=N)N)NC(=O)[C@H](CC(C)C)NC(=O)[C@H](Cc1ccccc1)NC(=O)[C@H](CC(=O)O)NC(=O)[C@H](C)NC(=O)[C@H](CC(C)C)NC(=O)[C@H](CCCNC(=N)N)NC(=O)[C@H](CCC(N)=O)NC(=O)[C@@H](NC(=O)[C@H](C)NC(=O)[C@@H]1CSSC[C@H](NC(=O)[C@H](CCCCN)NC(=O)CC[C@H](NC(=O)COCCOCCNC(=O)COCCOCCNC(=O)CCCCCCCCCCCCCCCCCCC(=O)O)C(=O)O)C(=O)N[C@@H](CC(N)=O)C(=O)N[C@@H]([C@@H](C)O)C(=O)N[C@@H](C)C(=O)N[C@@H]([C@@H](C)O)C(=O)N1)[C@@H](C)O)C(=O)N[C@@H](CC(C)C)C(=O)N1CCC[C@H]1C(=O)N1CCC[C@H]1C(=O)N[C@H](C(=O)N[C@@H](CC(N)=O)C(=O)N[C@H](C(=O)NCC(=O)N[C@@H](CO)C(=O)N[C@@H](CC(N)=O)C(=O)N[C@H](C(=O)N1CCC[C@H]1C(N)=O)[C@@H](C)O)C(C)C)[C@@H](C)O [PD188] ({C20 diacid-AEEA-AEEA-γGlu}-KCNTATCATQRLADFLRHSSNNLKPILPPTNVGSNTP-NH2; disulfide 2-7 (inferred))
- EC50: 0.025 nM

SMILES: CC[C@H](C)[C@H](NC(=O)[C@@H]1CCCN1C(=O)[C@H](CCCCN)NC(=O)[C@H](CC(C)C)NC(=O)[C@H](CC(N)=O)NC(=O)[C@H](CC(N)=O)NC(=O)[C@H](CO)NC(=O)[C@H](CO)NC(=O)[C@H](Cc1c[nH]cn1)NC(=O)[C@H](CCCNC(=N)N)NC(=O)[C@H](CC(C)C)NC(=O)[C@H](Cc1ccccc1)NC(=O)[C@H](CC(=O)O)NC(=O)[C@H](C)NC(=O)[C@H](CC(C)C)NC(=O)[C@H](CCCNC(=N)N)NC(=O)[C@H](CCC(N)=O)NC(=O)[C@@H](NC(=O)[C@H](C)NC(=O)[C@@H]1CSSC[C@H](NC(=O)[C@H](CCCCN)NC(=O)C2CCN(C(=O)COCCOCCNC(=O)COCCOCCNC(=O)CCCCCCCCCCCCCCCCCCC(=O)O)CC2)C(=O)N[C@@H](CC(N)=O)C(=O)N[C@@H]([C@@H](C)O)C(=O)N[C@@H](C)C(=O)N[C@@H]([C@@H](C)O)C(=O)N1)[C@@H](C)O)C(=O)N[C@@H](CC(C)C)C(=O)N1CCC[C@H]1C(=O)N1CCC[C@H]1C(=O)N[C@H](C(=O)N[C@@H](CC(N)=O)C(=O)N[C@H](C(=O)NCC(=O)N[C@@H](CO)C(=O)N[C@@H](CC(N)=O)C(=O)N[C@H](C(=O)N1CCC[C@H]1C(N)=O)[C@@H](C)O)C(C)C)[C@@H](C)O [PD192] ({C20 diacid-AEEA-AEEA-Inp}-KCNTATCATQRLADFLRHSSNNLKPILPPTNVGSNTP-NH2; disulfide 2-7 (inferred))
- EC50: 0.087 nM

SMILES: CC[C@H](C)[C@H](NC(=O)[C@@H]1CCCN1C(=O)[C@H](CCCCN)NC(=O)[C@H](CC(C)C)NC(=O)[C@H](CC(N)=O)NC(=O)[C@H](CC(N)=O)NC(=O)[C@H](CO)NC(=O)[C@H](CO)NC(=O)[C@H](Cc1c[nH]cn1)NC(=O)[C@H](CCCNC(=N)N)NC(=O)[C@H](CC(C)C)NC(=O)[C@H](Cc1ccccc1)NC(=O)[C@H](CC(=O)O)NC(=O)[C@H](C)NC(=O)[C@H](CC(C)C)NC(=O)[C@H](CCCNC(=N)N)NC(=O)[C@H](CCC(N)=O)NC(=O)[C@@H](NC(=O)[C@H](C)NC(=O)[C@@H]1CSSC[C@H](NC(=O)[C@H](CCCCN)NC(=O)COCCOCCNC(=O)COCCOCCNC(=O)[C@H](CC(=O)O)NC(=O)CCCCCCCCCCCCCCCCCCC(=O)O)C(=O)N[C@@H](CC(N)=O)C(=O)N[C@@H]([C@@H](C)O)C(=O)N[C@@H](C)C(=O)N[C@@H]([C@@H](C)O)C(=O)N1)[C@@H](C)O)C(=O)N[C@@H](CC(C)C)C(=O)N1CCC[C@H]1C(=O)N1CCC[C@H]1C(=O)N[C@H](C(=O)N[C@@H](CC(N)=O)C(=O)N[C@H](C(=O)NCC(=O)N[C@@H](CO)C(=O)N[C@@H](CC(N)=O)C(=O)N[C@H](C(=O)N1CCC[C@H]1C(N)=O)[C@@H](C)O)C(C)C)[C@@H](C)O [PD193] ({C20 diacid}-D[AEEA][AEEA]KCNTATCATQRLADFLRHSSNNLKPILPPTNVGSNTP-NH2; disulfide 5-10 (inferred))
- EC50: 0.074 nM

SMILES: CC[C@H](C)[C@H](NC(=O)[C@@H]1CCCN1C(=O)[C@H](CCCCN)NC(=O)[C@H](CC(C)C)NC(=O)[C@H](CC(N)=O)NC(=O)[C@H](CC(N)=O)NC(=O)[C@H](CO)NC(=O)[C@H](CO)NC(=O)[C@H](Cc1c[nH]cn1)NC(=O)[C@H](CCCNC(=N)N)NC(=O)[C@H](CC(C)C)NC(=O)[C@H](Cc1ccccc1)NC(=O)[C@H](CC(=O)O)NC(=O)[C@H](C)NC(=O)[C@H](CC(C)C)NC(=O)[C@H](CCCNC(=N)N)NC(=O)[C@H](CCC(N)=O)NC(=O)[C@@H](NC(=O)[C@H](C)NC(=O)[C@@H]1CSSC[C@H](NC(=O)[C@H](CCCCN)NC(=O)[C@H](CC(=O)O)NC(=O)COCCOCCNC(=O)COCCOCCNC(=O)CCCCCCCCCCCCCCCCCCC(=O)O)C(=O)N[C@@H](CC(N)=O)C(=O)N[C@@H]([C@@H](C)O)C(=O)N[C@@H](C)C(=O)N[C@@H]([C@@H](C)O)C(=O)N1)[C@@H](C)O)C(=O)N[C@@H](CC(C)C)C(=O)N1CCC[C@H]1C(=O)N1CCC[C@H]1C(=O)N[C@H](C(=O)N[C@@H](CC(N)=O)C(=O)N[C@H](C(=O)NCC(=O)N[C@@H](CO)C(=O)N[C@@H](CC(N)=O)C(=O)N[C@H](C(=O)N1CCC[C@H]1C(N)=O)[C@@H](C)O)C(C)C)[C@@H](C)O [PD194] ({C20 diacid-AEEA-AEEA}-DKCNTATCATQRLADFLRHSSNNLKPILPPTNVGSNTP-NH2; disulfide 3-8 (inferred))
- EC50: 0.074 nM

SMILES: CC[C@H](C)[C@H](NC(=O)[C@@H]1CCCN1C(=O)[C@H](CCCCN)NC(=O)[C@H](CC(C)C)NC(=O)[C@H](CC(N)=O)NC(=O)[C@H](CC(N)=O)NC(=O)[C@H](CO)NC(=O)[C@H](CO)NC(=O)[C@H](Cc1c[nH]cn1)NC(=O)[C@H](CCCNC(=N)N)NC(=O)[C@H](CC(C)C)NC(=O)[C@H](Cc1ccccc1)NC(=O)[C@H](CC(=O)O)NC(=O)[C@H](C)NC(=O)[C@H](CC(C)C)NC(=O)[C@H](CCCNC(=N)N)NC(=O)[C@H](CCC(N)=O)NC(=O)[C@@H](NC(=O)[C@H](C)NC(=O)[C@@H]1CSSC[C@H](NC(=O)[C@H](CCCCN)NC(=O)COCCOCCNC(=O)COCCOCCNC(=O)C[C@H](NC(=O)CCCCCCCCCCCCCCCCCCC(=O)O)C(=O)O)C(=O)N[C@@H](CC(N)=O)C(=O)N[C@@H]([C@@H](C)O)C(=O)N[C@@H](C)C(=O)N[C@@H]([C@@H](C)O)C(=O)N1)[C@@H](C)O)C(=O)N[C@@H](CC(C)C)C(=O)N1CCC[C@H]1C(=O)N1CCC[C@H]1C(=O)N[C@H](C(=O)N[C@@H](CC(N)=O)C(=O)N[C@H](C(=O)NCC(=O)N[C@@H](CO)C(=O)N[C@@H](CC(N)=O)C(=O)N[C@H](C(=O)N1CCC[C@H]1C(N)=O)[C@@H](C)O)C(C)C)[C@@H](C)O [PD195] ({C20 diacid-βAsp-AEEA-AEEA}-KCNTATCATQRLADFLRHSSNNLKPILPPTNVGSNTP-NH2; disulfide 2-7 (inferred))
- EC50: 0.025 nM
